# From the RepoRT retention time repository (doi:10.1016/j.foodchem.2021.129757)
# Columns and labels:
# Settings in all cases: stereoisomer not certain
# [1] = RP, 50 × 0.5 mm, 2.7 µm, 35 °C, 0.01 mL/min, estimated dead time 0.62 min; A: water + 0.1% formic acid, pH 3; B: acetonitrile + 0.1% formic acid, pH 3; gradient (min/%B) 0/5 12/95 14/95 16/5
# [2] = RP, Phenomenex Synergi Hydro-RP, 150 × 2 mm, 4 µm, 30 °C, 0.5 mL/min, estimated dead time 0.6 min; A: water + 0.1% formic acid, pH 3; B: acetonitrile + 0.1% formic acid, pH 3; gradient (min/%B) 0/5 1/5 35/45 40/100 45/100
# [3] = RP, Phenomenex Luna Omega Polar C18, 100 × 2.1 mm, 1.6 µm, 40 °C, 0.5 mL/min, estimated dead time 0.44 min; A: water + 0.5% formic acid; B: acetonitrile + 0.5% formic acid; gradient (min/%B) 0/5 3/50 3.1/100 5/100 5.1/5 7/5
# [4] = RP, Phenomenex Luna C18, 150 × 4.6 mm, 3 µm, 25 °C, 0.5 mL/min, estimated dead time 3.2 min; A: water + 0.1% formic acid, pH 3; B: acetonitrile + 0.1% formic acid, pH 3; gradient (min/%B) 0/0 30/30 35/40 50/80 52/80 60/0 65/0
# [5] = RP, Phenomenex Luna Omega Polar C18, 100 × 2.1 mm, 1.6 µm, 40 °C, 0.5 mL/min, estimated dead time 0.44 min; A: water + 0.1% formic acid + 10 mM ammonium formate; B: acetonitrile; gradient (min/%B) 0/5 8/20 10/100 12/100 12.1/5 14/5
# [6] = RP, Waters ACQUITY UPLC HSS T3, 100 × 2.1 mm, 1.8 µm, 30 °C, 0.4 mL/min, estimated dead time 0.55 min; A: water + 0.1% formic acid, pH 3; B: acetonitrile + 0.1% formic acid, pH 3; gradient (min/%B) 0/0 2/0 15/100 22/100 22.1/0 26/0
# [7] = RP, Agilent ZORBAX Eclipse XDB-C18, 100 × 2.1 mm, 1.8 µm, 50 °C, 0.4 mL/min, estimated dead time 0.55 min; A: water + 0.1% formic acid, pH 3; B: methanol + 0.1% formic acid, pH 3; gradient (min/%B) 0/2 10/100 14.5/100 14.51/2 16.5/2
# [8] = RP, Waters ACQUITY UPLC BEH C18, 100 × 2.1 mm, 1.7 µm, 65 °C, 0.4 mL/min, estimated dead time 0.55 min; A: water + 0.1% formic acid, pH 3; B: 80% acetonitrile + 20% acetone + 0.1% formic acid, pH 3; gradient (min/%B) 0/0 5/100 5.5/0 6/0
# [9] = RP, Waters ACQUITY UPLC BEH Shield RP18, 100 × 2.1 mm, 1.7 µm, 30 °C, 0.6 mL/min, estimated dead time 0.37 min; A: water + 0.1% formic acid, pH 3; B: acetonitrile + 0.1% formic acid, pH 3; gradient (min/%B) 0/0 2/0 7/10 22/95 22.1/0 26/0
# [10] = RP, Waters ACQUITY UPLC BEH Shield RP18, 150 × 2.1 mm, 1.7 µm, 40 °C, 0.4 mL/min, estimated dead time 0.83 min; A: water + 0.1% formic acid, pH 3; B: acetonitrile + 0.1% formic acid, pH 3; gradient (min/%B) 0/0 30/50 31/100 37/100 37.1/0
# [11] = RP, Agilent InfinityLab Poroshell 120 EC-C18, 100 × 3 mm, 2.7 µm, 25 °C, 0.4 mL/min, estimated dead time 1.1 min; A: water + 0.1% formic acid, pH 3; B: acetonitrile + 0.1% formic acid, pH 3; gradient (min/%B) 0/5 10/25 20/40 24/90 25/90 26/5 30/5
# [12] = Other, Phenomenex Kinetex PFP, 100 × 4.6 mm, 5 µm, 45 °C, 0.6 mL/min, estimated dead time 1.8 min; A: water + 0.1% trifluoroacetic acid, pH 2; B: methanol; gradient (min/%B) 0/40 20/72 21/40
# [13] = RP, Agilent ZORBAX RRHD Eclipse Plus C18, 50 × 2.1 mm, 1.8 µm, 30 °C, 0.4 mL/min, estimated dead time 0.28 min; A: water + 0.1% formic acid, pH 3; B: acetonitrile + 0.1% formic acid, pH 3; gradient (min/%B) 0/1 5/10 8/25 9.1/99 10/99 12/1
# [14] = RP, Agilent ZORBAX RRHD Eclipse Plus C18, 50 × 2.1 mm, 1.8 µm, 30 °C, 0.4 mL/min, estimated dead time 0.28 min; A: water + 0.1% formic acid, pH 3; B: acetonitrile + 0.1% formic acid, pH 3; gradient (min/%B) 0/1 5/10 8/25 9.1/99 10/99 12/99
# [15] = RP, Waters ACQUITY UPLC HSS T3, 100 × 2.1 mm, 50 °C; A: water + 0.1% formic acid, pH 3; B: 30% methanol + 70% acetonitrile + 0.1% formic acid, pH 3; gradient (min/%B) 0/5 1/8 2/15 3/40 4/70 4.5/100 5/100 6.4/100 6.6/5 6.8/5 7/5
# [16] = RP, Merck LiChrospher RP-18, 250 × 4 mm, 5 µm, 35 °C, 0.3 mL/min, estimated dead time 6.7 min; A: water + 0.5% formic acid; B: acetonitrile + 0.5% formic acid; gradient (min/%B) 0/5 10/5 30/15 45/20 65/20 95/54 110/63 115/5 135/5
# [17] = RP, Waters Atlantis T3, 100 × 2.1 mm, 3 µm, 40 °C, 0.3 mL/min, estimated dead time 0.73 min; A: water + 0.1% trifluoroacetic acid, pH 2; B: acetonitrile + 0.1% trifluoroacetic acid, pH 2; gradient (min/%B) 0/10 1/10 6/40 7/50 8/50 14/70 16/80 20/10 25/10
# [18] = RP, 150 × 2.1 mm, 2.6 µm, 40 °C, 0.35 mL/min, estimated dead time 0.94 min; A: water + 0.1% formic acid, pH 3; B: acetonitrile + 0.1% formic acid, pH 3; gradient (min/%B) 0/0 1/0 12.5/100 14/100 14.2/0 15/0
# [19] = RP, 150 × 2.1 mm, 2.6 µm, 40 °C, 0.35 mL/min, estimated dead time 0.94 min; A: water + 0.1% formic acid, pH 3; B: acetonitrile + 0.1% formic acid, pH 3; gradient (min/%B) 0/0 1/5 7/45 8.5/80 10.5/80 11/5 12/5
# [20] = RP, Phenomenex Kinetex EVO C18, 100 × 2.1 mm, 2.6 µm, 40 °C, 0.4 mL/min, estimated dead time 0.55 min; A: water + 0.2% formic acid; B: acetonitrile + 0.2% formic acid; gradient (min/%B) 0/5 0.5/5 7/95 8/95 8.5/5 12/5
# [21] = RP, Phenomenex Synergi Hydro-RP, 250 × 2 mm, 4 µm, 25 °C, 0.2 mL/min, estimated dead time 2.5 min; A: water + 0.1% formic acid, pH 3; B: acetonitrile + 0.1% formic acid, pH 3; gradient (min/%B) 0/0.5 7/0.5 12/12.5 25/16.3 47/35 48/65 50/65 50.1/0.5
SMILES,LC retention time [1] [min],LC retention time [3] [min],LC retention time [4] [min],LC retention time [5] [min],LC retention time [6] [min],LC retention time [7] [min],LC retention time [10] [min],LC retention time [11] [min],LC retention time [16] [min],LC retention time [17] [min],further results
"COc1cc(CC2COC(c3ccc(O)c(OC)c3)C2CO)ccc1O (single isomer, unassigned; (+)) [(+)-Lariciresinol]",5.08,2.68,32.2,9.31,10.2,5.5,15,12.1,,,LC retention time [2]: 19.4 min; LC retention time [8]: 2.48 min; LC retention time [9]: 13.5 min
"COc1cc(C2Oc3c(O)cc(-c4oc5cc(O)cc(O)c5c(=O)c4O)cc3C2CO)ccc1O (stereo not drawn) [2,3-Dehydrosilychristin A]",,,,,,,,,,,LC retention time [12]: 17.5 min
Cc1ccc(O)c(OS(=O)(=O)O)c1 [4-Methylcatechol monosulfate],,,,,,,,,,,LC retention time [12]: 4.92 min
COc1c(O)cc(C(=O)O)cc1OS(=O)(=O)O [4-O-methylgallic acid 3-O-sulfate],1.84,1.41,11.7,1.78,7.32,2.27,,3.61,,,LC retention time [2]: 5.32 min; LC retention time [9]: 10.4 min; LC retention time [13]: 3.6 min; LC retention time [14]: 1.15 min
Cc1ccc(O)c(O)c1 [4-methylcatechol],,,,,,,,,,,LC retention time [12]: 6.24 min
CCCCCCCCCCCCCCCCCc1cc(O)cc(O)c1 [Alkylresorcinol C17:0],13.3,4.6,,11.1,20.3,11.1,,,,,
CCCCCCCCCCCCCCCCCCCCCCCCCc1cc(O)cc(O)c1 [Alkylresorcinol C25:0],,5.12,,11,,13,,,,,
O=C1c2c(O)cc(O)cc2OC(c2cc(O)c(OS(=O)(=O)O)c(O)c2)C1O (stereo not drawn) [Ampelopsin-4-O-sulfate],,,,,,,,,,,LC retention time [12]: 7.54 min
O=S(=O)(O)Oc1ccccc1O [Catechol O-sulfate],,,18.2,1.79,,2.1,7.99,4.22,,,LC retention time [2]: 4.29 min; LC retention time [15]: 2.26 min; LC retention time [13]: 2.95 min; LC retention time [14]: 1.45 min
OCC1OC(Oc2cc3c(O)cc(O)cc3[o+]c2-c2ccc(O)c(O)c2)C(O)C(O)C1O (stereo not drawn) [Cyanidin 3-O-glucoside],3.25,1.76,9.83,,7.85,3.52,7.98,5.65,49,5.04,LC retention time [2]: 9.85 min; LC retention time [9]: 10.8 min

# More lines, main results first:
LC retention time [1] [min],LC retention time [3] [min],LC retention time [4] [min],LC retention time [5] [min],LC retention time [6] [min],LC retention time [7] [min],LC retention time [10] [min],LC retention time [11] [min],LC retention time [16] [min],LC retention time [17] [min],SMILES,further results
1.67,,8.55,2.05,7.27,2.44,3.26,3.8,,,OCCc1ccc(O)c(O)c1 [Hydroxytyrosol],
,,,,,,12.4,,62.2,7.79,O=c1cc(-c2ccc(O)c(O)c2)oc2cc(OC3OC(CO)C(O)C(O)C3O)cc(O)c12 (stereo not drawn) [Luteolin 7-glucoside],LC retention time [18]: 5.68 min; LC retention time [19]: 5.79 min
,,,,11.6,,21.1,16.3,95.6,10.1,O=C1CC(c2ccc(O)cc2)Oc2cc(O)cc(O)c21 (stereo not drawn) [Naringenin],LC retention time [18]: 7.61 min; LC retention time [19]: 7.97 min
,,,,,,,,83.2,8.38,CC=C1C(OC2OC(CO)C(O)C(O)C2O)OC=C(C(=O)OC)C1CC(=O)OCCc1ccc(O)c(O)c1 (stereo not drawn) [Oleuropein],LC retention time [20]: 5.24 min
,,,,,,,,78,7.94,O=c1c(O)c(-c2ccc(OC3OC(CO)C(O)C(O)C3O)c(O)c2)oc2cc(O)cc(O)c12 (stereo not drawn) [Quercetin 4-O-glucoside],LC retention time [18]: 6.09 min
5.33,3.08,35.8,9.38,10.6,5.95,18.4,13.1,,,O=c1oc2cc(O)ccc2c2ccc(O)cc12 [Urolithin A],LC retention time [20]: 5.59 min; LC retention time [9]: 14.9 min
11.2,1.8,,10.9,18.1,10.7,34.2,,,,CC1CCC2(C(=O)O)CCC3(C)C(=CCC4C5(C)CCC(O)C(C)(C)C5CCC43C)C2C1C (stereo not drawn) [Ursolic acid],LC retention time [9]: 22.7 min
,,,,,,,,63.4,7.5,O=C(O)/C=C/c1cccc(O)c1 [m-Coumaric acid],LC retention time [15]: 3.53 min; LC retention time [8]: 2.14 min; LC retention time [13]: 7.72 min; LC retention time [14]: 7.99 min; LC retention time [21]: 33.9 min
